Experimental data taken from US8664223B2, “Pyridine and pyrimidine derivatives as inhibitors of histone deacetylase” (Janssen Pharmaceutica N.V, priority 2006, dated 2014).
≈ marks a conversion by molar mass, not a printed value. Counter-ions that a name gives are not always drawn. Like-named read-outs stand apart in the source and are kept apart here.

Columns and labels:
[1] = not given; remark: listed apart in the source
[2] = Solubility/stability at pH 2.3 (chemiluminescent nitrogen detector); assay type: physicochemical; conditions: pH 2.3, aqueous buffer; read-out: Solubility C.3.b. pH = 2.3
Method: The solubility of a compound measures the ability of a compound to stay in solution. In the first method, the ability of a compound to stay in aqueous solution upon dilution (see example C.3.a) is measured. DMSO-stock solutions are diluted with a single aqueous buffer solvent in different consecutive steps. In this method (C.3.a), mixtures are then scanned in the BD Gentest Solubility Scanner for the occurrence of precipitation. In the second method the solubility of a compound at different pH's can be measured with the use of a chemiluminescent nitrogen detector (see example C.3.b).
C.3.b. Solubility/Stability at pH 2.3
The solubility of a compound, at pH 2.3, can also be measured with the use of a chemiluminescent nitrogen detector (see Table F-2).

[3] = tested on: A2780 ovarian carcinoma cells; experiment: Antiproliferative activity on A2780 cells (MTT); assay type: cell-based; conditions: Homo sapiens, 96 h, four days of incubation, read-out: Cellular activity pIC50 C.2 (converted)
Method: Cellular activity of the compounds of formula (I) was determined on A2780 tumour cells using a colorimetric assay for cell toxicity or survival (Mosmann Tim, Journal of Immunological Methods 65: 55-63, 1983) (see example C.2).
All compounds tested were dissolved in DMSO and further dilutions were made in culture medium. Final DMSO concentrations never exceeded 0.1% (v/v) in cell proliferation assays. Controls contained A2780 cells and DMSO without compound and blanks contained DMSO but no cells. MTT was dissolved at 5 mg/ml in PBS. A glycine buffer comprised of 0.1 M glycine and 0.1 M NaCl buffered to pH 10.5 with NaOH (1N) was prepared (all reagents were from Merck).
The human A2780 ovarian carcinoma cells (a kind gift from Dr. T. C. Hamilton [Fox Chase Cancer Centre, Pennsylvania, USA]) were cultured in RPMI 1640 medium supplemented with 2 mM L-glutamine, 50 μg/ml gentamicin and 10% fetal calf serum. Cells were routinely kept as monolayer cultures at 37° C. in a humidified 5% CO2 atmosphere. Cells were passaged once a week using a trypsin/EDTA solution at a split ratio of 1:40. All media and supplements were obtained from Life Technologies. Cells were free of mycoplasma contamination as determined using the Gen-Probe Mycoplasma Tissue Culture kit (supplier: BioMérieux).
Cells were seeded in NUNC™ 96-well culture plates (Supplier: Life Technologies) and allowed to adhere to the plastic overnight. Densities used for plating were 1500 cells per well in a total volume of 200 μl medium. After cell adhesion to the plates, medium was changed and drugs and/or solvents were added to a final volume of 200 μl. Following four days of incubation, medium was replaced by 200 μl fresh medium and cell density and viability was assessed using an MTT-based assay. To each well, 25 μl MTT solution was added and the cells were further incubated for 2 hours at 37° C. The medium was then carefully aspirated and the blue MTT-formazan product was solubilized by addition of 25 μl glycine buffer followed by 100 μl of DMSO. […] Within an experiment, the results for each experimental condition are the mean of 3 replicate wells. For initial screening purposes, compounds were tested at a single fixed concentration of 10^−6 M. For active compounds, the experiments were repeated to establish full concentration-response curves. For each experiment, controls (containing no drug) and a blank incubation (containing no cells or drugs) were run in parallel. The blank value was subtracted from all control and sample values. For each sample, the mean value for cell growth (in absorbance units) was expressed as a percentage of the mean value for cell growth of the control. […] Herein the effects of test compounds are expressed as pIC50 (the negative log value of the IC50-value) (see Table F-2).

[4] = target: histone deacetylase (HeLa nuclear extracts); experiment: In vitro assay for inhibition of histone deacetylase with fluorescent-labelled substrate (Fluor de Lys); assay type: biochemical; conditions: HeLa nuclear extracts 60 μg/ml, 75 μM substrate
From the text: The in vitro assay for inhibition of histone deacetylase (see example C.1) measures the inhibition of HDAC enzymatic activity obtained with the compounds of formula (I).
The HDAC Fluorescent Activity Assay/Drug Discovery Kit of Biomol (cat. No: AK-500-0001) was used. The HDAC Fluorescent Activity Assay is based on the Fluor de Lys (Fluorogenic Histone deAcetylase Lysyl) substrate and developer combination. The Fluor de Lys substrate, comprises an acetylated lysine side chain. Deacetylation of the substrate sensitizes the substrate so that, in the second step, treatment with the Fluor de Lys developer produces a fluorophore.
HeLa nuclear extracts (supplier: Biomol) were incubated at 60 μg/ml with 75 μM of substrate. The Fluor de Lys substrate was added in a buffer containing 25 mM Tris, 137 mM NaCl, 2.7 mM KCl and 1 mM MgCl2.6H2O at pH 7.4. After 30 min, 1 volume of the developer was added. The fluorophore was excited with 355 nm light and the emitted light (450 nm) was be detected on a fluorometric plate reader.
For each experiment, controls (containing HeLa nuclear extract and buffer), a blank incubation (containing buffer but no HeLa nuclear extract) and samples (containing compound dissolved in DMSO and further diluted in buffer and HeLa nuclear extract) were run in parallel. In first instance, compounds were tested at a concentration of 10^−5M. […] All sample were tested 4 times. In each test the blank value was subtracted from both the control and the sample values. The control sample represented 100% of substrate deacetylation. For each sample the fluorescence was expressed as a percentage of the mean value of the controls. […] Herein the effects of test compounds are expressed as pIC50 (the negative log value of the IC50-value) (see Table F-2).

Compound	melting point [°C]	IC50 [3] [nM]	Enzymatic activity pIC50 C.1 [4]	further results
CC(=O)NC(/C=C/c1ccccc1)CN1CCN(c2ncc(C(=O)NO)cn2)CC1 (stereo not drawn) (as salt: trifluoroacetic acid salt) (hydrate or solvate) [Compound 1]	166	–	–	–
O=C(NO)c1cnc(N2CCN(CC(/C=C/c3ccccc3)N3C(=O)CCC3=O)CC2)nc1 (stereo not drawn) (as salt: trifluoroacetic acid salt) (hydrate or solvate) [Compound 3]	148	–	–	–
NC(/C=C/c1ccccc1)CN1CCN(c2ncc(C(=O)NO)cn2)CC1 (stereo not drawn) (as salt: trifluoroacetic acid salt) [Compound 2]	124	–	–	–
COc1cc(N)c(Cl)cc1C(=O)NC1CCN(CCCOc2ccc(F)cc2)CC1OC (stereo not drawn) [Cisapride]	–	–	–	% metabolism ([1]; human, 15 min, 5 μM): 45%
CC(=O)NC(/C=C/c1ccccc1)CN1CCN(c2ncc(C(=O)NO)cn2)CC1 (stereo not drawn) [Compound 1]	–	398	8.2	solubility [2]: 2400 µg/mL (≈ 5.85 mM)
NC(/C=C/c1ccccc1)CN1CCN(c2ncc(C(=O)NO)cn2)CC1 (stereo not drawn) [Compound 2]	–	79.4	8.2	solubility [2]: 3100 µg/mL (≈ 8.41 mM)
CCCO [propanol]	–	–	–	% metabolism ([1]; after 15 min incubation with active microsomes, compound 5 μM): 25%

Further lines, with some results ahead:

melting point [°C]	IC50 [3] [nM]	Enzymatic activity pIC50 C.1 [4]	Compound	further results
115	–	–	O=C(NO)c1cnc(N2CCN(CC(/C=C/c3ccccc3)Oc3ccc(F)cc3)CC2)nc1 (stereo not drawn) (as salt: trifluoroacetic acid salt) (hydrate or solvate) [Compound 4]	–
–	7940	7.5	O=C(NO)c1cnc(N2CCN(CC(/C=C/c3ccccc3)N3C(=O)CCC3=O)CC2)nc1 (stereo not drawn) [Compound 3]	–
–	1580	7.3	O=C(NO)c1cnc(N2CCN(CC(/C=C/c3ccccc3)Oc3ccc(F)cc3)CC2)nc1 (stereo not drawn) [Compound 4]	–
–	5010	7.0	CS(=O)(=O)NC(/C=C/c1ccc(F)cc1)CN1CCN(c2ccc(C(=O)NO)cn2)CC1 (stereo not drawn) [Compound 6]	–
